# Tested on: Granta-519 cells
# Test: Cell proliferation assay in Granta-519 cells
# Assay type: cell-based
# Details: Homo sapiens, 240 h; Granta-519, day 10; read-out: Prolif_Granta IC50
# Experimental: Granta-519 cells were maintained in PRMI 1640 (Corning Cellgro, Catalog #: 10-040-CV) medium supplemented with 10% v/v FBS (GE Healthcare, Catalog #: SH30910.03). Compounds were dissolved in DMSO to make 10 mM stocks and stored at −20° C. Nine-point, 3-fold serial dilutions were made with DMSO with top concentration at 1 mM (working stocks).
# On day of experiment, compound working stocks were further diluted at 1:50 with fresh medium in 96 well plate, and 10 μL of diluted drugs were added to a new 96 well plate for proliferation assay. Cells growing at exponential phase were spun down at 1500 rpm for 4 min and resuspend in fresh medium to reach a density of 0.5×10^6 cells/ml. 200 ul of cells were added to 96 well plate containing diluted drugs and incubated for 3 days. DMSO was used a vehicle control.
# On day 3, 10 μL of Cell Counting Kit-8 (CCK-8, Jojindo, CK04-13) solution was added to a new 96 well plate. Cells incubated with drugs for 3 days were resuspended by pipetting up and down, and 100 μL of cells were transferred to 96 well plate containing CCK-8 reagent to measure viable cells. Plates were incubated in CO2 incubator for 2 hours and OD450 values were measured with a microplate reader (iMark microplate reader, Bio-Rad).
# For re-plating, compound working stocks were diluted at 1:50 with fresh medium and 10 μL of diluted drugs were added to a new 96 well plate. Cells from Day 3 plate (50 ul) were added to 96 well plate containing fresh drug and additional 150 μL of fresh medium was added to reach 200 μL volume. Plate was returned to CO2 incubator and incubated for 3 more days. Viable cells measurement and re-plating were repeated on day 6, and the final viable cells measurement was taken on day 10.
# Percentage of viable cells, relative to DMSO vehicle control, were calculated and plotted in Graphpad Prism ([Inhibitor]vs. normalized response−Variable slope) to determine proliferation IC50 values on day 10.
# One day before experiment, Granta-519 cells were passaged to a density of 0.5×10^6 cells/ml. U-87 MG cells were trypsinized and 2,000 cells were seeded into 96-well plates and allow to grow overnight. On the day of experiment (day 0), Granta-519 Cells were spun down at 1,500 rpm for 4 min, resuspended in fresh medium to 0.5×10^6 cells/ml and 190 ul of cells were added to 96 well plates. For U-87 MG cells, old medium was removed and replaced with 190 uL fresh medium. Compound working stocks were first diluted at 1:50 with fresh medium in 96 well plate and 10 μL of diluted drugs were added to 96 well plates containing cells and incubated for 3 days. DMSO was used a vehicle control.
# One day 3, 50 uL of Granta-519 cells were transferred to a new 96-well plate and 140 uL fresh medium was added. For U-87 MG cells, old medium was removed and replaced with 190 uL fresh medium. Compound working stocks were freshly diluted at 1:50 with medium and 10 μL of diluted drugs were added to cells and grow for 3 additional days. The same process was repeated on day 6. Cells were allowed to grow for additional 4 days.
# On day 10, 100 uL Granta-519 cells were transferred to a new 96 well plate and 10 μL of Cell Counting Kit-8 (CCK-8, Jojindo, CK04-13) solution was added. For U-87 MG cells, old medium was removed and replaced with 100 uL fresh medium and 10 uL CCK-8 solution was added. Plates were incubated in CO2 incubator for 2 hours (Granta-519 cells) or 30 min (U-87 MG cells) and OD450 values were measured with a microplate reader (iMark microplate reader, Bio-Rad). Percentage of viable cells, relative to DMSO vehicle control, were calculated and plotted in Graphpad Prism ([Inhibitor]vs. normalized response−Variable slope) to determine proliferation IC50 values on day 10.
# These cell proliferation procedures produced the data in Table 7.
row,SMILES,IC50 [nM]
1,"O[C@@H]1[C@H](O)[C@@H]([C@H](O)c2ccc3c(c2)CC3)O[C@H]1n1ccc2c(Cl)ncnc21 [Example 56, (2R,3S,4R,5R)-2-((R)-bicyclo[4.2.0]octa-1(6),2,4-trien-3-yl(hydroxy)methyl)-5-(4-chloro-7H-pyrrolo[2,3-d]pyrimidin-7-yl)tetrahydrofuran-3,4-diol]",50000
2,"Nc1ncnc2c1c(Br)cn2[C@@H]1O[C@H]([C@H](O)c2ccc3c(c2)CC3)[C@@H](O)[C@H]1O [Example 36, (2R,3R,4S,5R)-2-(4-amino-5-bromo-7H-pyrrolo[2,3-d]pyrimidin-7-yl)-5-((R)-bicyclo[4.2.0]octa-1,3,5-trien-3-yl(hydroxy)methyl)tetrahydrofuran-3,4-diol]",1100
3,"C[C@@](O)(c1ccc2c(c1)CC2)[C@H]1O[C@@H](n2ccc3c(N)ncnc32)[C@H](O)[C@@H]1O [Example 1, (2R,3R,4S,5S)-2-(4-amino-7H-pyrrolo[2,3-d]pyrimidin-7-yl)-5-((R)-1-(bicyclo[4.2.0]octa-1(6),2,4-trien-3-yl)-1-hydroxyethyl)tetrahydrofuran-3,4-diol]",38
4,"Nc1ncnc2c1c(F)cn2[C@@H]1O[C@H]([C@H](O)c2ccc3c(c2)CC3)[C@@H](O)[C@H]1O [Example 6, (2R,3R,4S,5R)-2-(4-amino-5-fluoro-7H-pyrrolo[2,3-d]pyrimidin-7-yl)-5-((R)-bicyclo[4.2.0]octa-1(6),2,4-trien-3-yl(hydroxy)methyl)tetrahydrofuran-3,4-diol]",67
5,"CNc1ncnc2c1ccn2[C@@H]1O[C@H]([C@H](O)c2ccc3c(c2)CC3)[C@@H](O)[C@H]1O [Example 54, (2R,3S,4R,5R)-2-((R)-bicyclo[4.2.0]octa-1(6),2,4-trien-3-yl(hydroxy)methyl)-5-(4-(methylamino)-7H-pyrrolo[2,3-d]pyrimidin-7-yl)tetrahydrofuran-3,4-diol]",1010
6,"Cc1ncnc2c1ccn2[C@@H]1O[C@H]([C@H](O)c2ccc3c(c2)CC3)[C@@H](O)[C@H]1O [Example 11, (2R,3S,4R,5R)-2-((R)-bicyclo[4.2.0]octa-1(6),2,4-trien-3-yl(hydroxy)methyl)-5-(4-methyl-7H-pyrrolo[2,3-d]pyrimidin-7-yl)tetrahydrofuran-3,4-diol]",92
7,"Cc1ncnc2c1ccn2[C@@H]1O[C@H]([C@H](O)c2nc3c(s2)CCC3)[C@@H](O)[C@H]1O [Example 52, (2S,3S,4R,5R)-2-((S)-(5,6-dihydro-4H-cyclopenta[d]thiazol-2-yl)(hydroxy)methyl)-5-(4-methyl-7H-pyrrolo[2,3-d]pyrimidin-7-yl)tetrahydrofuran-3,4-diol]",396
8,"OCCc1ncnc2c1ccn2[C@@H]1O[C@H]([C@H](O)c2ccc3c(c2)CC3)[C@@H](O)[C@H]1O [Example 53, (2R,3S,4R,5R)-2-((R)-bicyclo[4.2.0]octa-1,3,5-trien-3-yl(hydroxy)methyl)-5-(4-(2-hydroxyethyl)-7H-pyrrolo[2,3-d]pyrimidin-7-yl)tetrahydrofuran-3,4-diol]",10000
9,"Nc1ncnc2c1ccn2[C@@H]1O[C@H]([C@H](O)c2ccc3c(c2)CC3)[C@@H](O)[C@H]1O [Example 2, (2R,3R,4S,5R)-2-(4-amino-7H-pyrrolo[2,3-d]pyrimidin-7-yl)-5-((R)-bicyclo[4.2.0]octa-1(6),2,4-trien-3-yl(hydroxy)methyl)tetrahydrofuran-3,4-diol]",35

# Same assay, conditions: Homo sapiens, Granta-519; initial testing; read-out: Prolif_(Granta) IC50
row,SMILES,IC50 [nM]
1,"C[C@@](O)(c1ccc2c(c1)CC2)[C@H]1O[C@@H](n2ccc3c(N)ncnc32)[C@H](O)[C@@H]1O [Example 1, (2R,3R,4S,5S)-2-(4-amino-7H-pyrrolo[2,3-d]pyrimidin-7-yl)-5-((R)-1-(bicyclo[4.2.0]octa-1(6),2,4-trien-3-yl)-1-hydroxyethyl)tetrahydrofuran-3,4-diol]",28
